Values after ≈ are worked out from the molar mass of the structure shown.
The compounds below were run on Candida albicans (assay: Antifungal activity against Candida albicans MTCC 7315 incubated for 24 hrs at 30 degC by well diffusion method). Details: MTCC 7315, 24 h.
Format: functional

MIC	Structure (SMILES)
31.2 µg/mL (≈ 86.3 µM)	CCCCCCCCC[C@@H](O)[C@H](CO)n1cc(-c2cccc(O)c2)nn1

The compounds below were run on Candida albicans (assay: Fungicidal activity against Candida albicans MTCC 3018 incubated for 24 hrs). Details: MTCC 3018, 24 h.
Format: functional

Structure (SMILES)	MFC
CCCCCCCCC[C@@H](O)[C@H](CO)n1cc(-c2cccc(O)c2)nn1	15.6 µg/mL (≈ 43.2 µM)

Each compound was assayed on Candida albicans (assay: Fungicidal activity against Candida albicans MTCC 183 incubated for 24 hrs). Details: MTCC 183, 24 h.
Format: functional

Structure (SMILES)	MFC
CCCCCCCCC[C@@H](O)[C@H](CO)n1cc(-c2cccc(O)c2)nn1	15.6 µg/mL (≈ 43.2 µM)

What follows are compounds tested on [Candida] aaseri (assay: Fungicidal activity against Candida aaseri MTCC 1962 incubated for 24 hrs). Details: Yamadazyma aaseri, MTCC 1962, 24 h.
Format: functional

Structure (SMILES)	MFC
CCCCCCCCC[C@@H](O)[C@H](CO)n1cc(-c2cccc(O)c2)nn1	15.6 µg/mL (≈ 43.2 µM)

Each compound was assayed on Pichia sporocuriosa (assay: Fungicidal activity against Issatchenkia hanoiensis MTCC 4755 incubated for 24 hrs). Details: MTCC 4755, 24 h.
Format: functional

Structure (SMILES)	MFC
CCCCCCCCC[C@@H](O)[C@H](CO)n1cc(-c2cccc(O)c2)nn1	7.8 µg/mL (≈ 21.6 µM)

What follows are compounds tested on Candida albicans (assay: Antifungal activity against Candida albicans MTCC 4748 incubated for 24 hrs at 30 degC by well diffusion method). Details: MTCC 4748, 24 h.
Format: functional

MIC	Structure (SMILES)
7.8 µg/mL (≈ 21.6 µM)	CCCCCCCCC[C@@H](O)[C@H](CO)n1cc(-c2cccc(O)c2)nn1

The compounds below were run on Staphylococcus aureus (assay: Antibiofilm activity against Staphylococcus aureus MTCC 96 after 24 hrs by crystal violet staining based assay). Details: MTCC 96, 24 h.
Format: functional, organism-based

IC50	Structure (SMILES)
2.9 µg/mL (≈ 8.02 µM)	CCCCCCCCC[C@@H](O)[C@H](CO)n1cc(-c2cccc(O)c2)nn1

Each compound was assayed on Staphylococcus aureus (assay: Antibacterial activity against Staphylococcus aureus MLS16 MTCC 2940 incubated for 24 hrs at 37 degC by well diffusion method). Details: MLS16 MTCC 2940, 24 h.
Format: functional

MIC	Structure (SMILES)
7.8 µg/mL (≈ 21.6 µM)	CCCCCCCCC[C@@H](O)[C@H](CO)n1cc(-c2cccc(O)c2)nn1

The compounds below were run on Candida albicans (assay: Fungicidal activity against Candida albicans MTCC 1637 incubated for 24 hrs). Details: MTCC 1637, 24 h.
Format: functional

Structure (SMILES)	MFC
CCCCCCCCC[C@@H](O)[C@H](CO)n1cc(-c2cccc(O)c2)nn1	15.6 µg/mL (≈ 43.2 µM)

These compounds were tested on Candida albicans (assay: Antibiofilm activity against Candida albicans MTCC 227 after 24 hrs by crystal violet staining based assay). Details: MTCC 227, 24 h.
Format: functional, organism-based

IC50	Structure (SMILES)
1.9 µg/mL (≈ 5.26 µM)	CCCCCCCCC[C@@H](O)[C@H](CO)n1cc(-c2cccc(O)c2)nn1

What follows are compounds tested on Escherichia coli (assay: Bactericidal activity against Escherichia coli MTCC 739 incubated for 24 hrs). Details: MTCC 739, 24 h.
Format: functional

Structure (SMILES)	MBC
CCCCCCCCC[C@@H](O)[C@H](CO)n1cc(-c2cccc(O)c2)nn1	> 250 µg/mL

Each compound was assayed on Pichia kudriavzevii (assay: Antifungal activity against Candida krusei MTCC 3020 incubated for 24 hrs at 30 degC by well diffusion method). Details: MTCC 3020, 24 h.
Format: functional

MIC	Structure (SMILES)
15.6 µg/mL (≈ 43.2 µM)	CCCCCCCCC[C@@H](O)[C@H](CO)n1cc(-c2cccc(O)c2)nn1

What follows are compounds tested on Bacillus subtilis (assay: Bactericidal activity against Bacillus subtilis MTCC 121 incubated for 24 hrs). Details: MTCC 121, 24 h.
Format: functional

Structure (SMILES)	MBC
CCCCCCCCC[C@@H](O)[C@H](CO)n1cc(-c2cccc(O)c2)nn1	15.6 µg/mL (≈ 43.2 µM)

What follows are compounds tested on Candida albicans (assay: Antifungal activity against Candida albicans MTCC 227 incubated for 24 hrs at 30 degC by well diffusion method). Details: MTCC 227, 24 h.
Format: functional

MIC	Structure (SMILES)
3.9 µg/mL (≈ 10.8 µM)	CCCCCCCCC[C@@H](O)[C@H](CO)n1cc(-c2cccc(O)c2)nn1

Each compound was assayed on Candida albicans (assay: Antifungal activity against Candida albicans MTCC 3018 incubated for 24 hrs at 30 degC by well diffusion method). Details: MTCC 3018, 24 h.
Format: functional

MIC	Structure (SMILES)
7.8 µg/mL (≈ 21.6 µM)	CCCCCCCCC[C@@H](O)[C@H](CO)n1cc(-c2cccc(O)c2)nn1

The compounds below were run on Candida albicans (assay: Fungicidal activity against Candida albicans MTCC 7315 incubated for 24 hrs). Details: MTCC 7315, 24 h.
Format: functional

Structure (SMILES)	MFC
CCCCCCCCC[C@@H](O)[C@H](CO)n1cc(-c2cccc(O)c2)nn1	31.2 µg/mL (≈ 86.3 µM)

These compounds were tested on Raoultella planticola (assay: Antibacterial activity against Klebsiella planticola MTCC 530 incubated for 24 hrs at 37 degC by well diffusion method). Details: MTCC 530, 24 h.
Format: functional

Structure (SMILES)	MIC
CCCCCCCCC[C@@H](O)[C@H](CO)n1cc(-c2cccc(O)c2)nn1	15.6 µg/mL (≈ 43.2 µM)

The compounds below were run on Candida parapsilosis (assay: Fungicidal activity against Candida parapsilosis MTCC 1744 incubated for 24 hrs). Details: Lodderomyces parapsilosis, MTCC 1744, 24 h.
Format: functional

Structure (SMILES)	MFC
CCCCCCCCC[C@@H](O)[C@H](CO)n1cc(-c2cccc(O)c2)nn1	15.6 µg/mL (≈ 43.2 µM)

The compounds below were run on Staphylococcus aureus (assay: Bactericidal activity against Staphylococcus aureus MTCC 96 incubated for 24 hrs). Details: MTCC 96, 24 h.
Format: functional

Structure (SMILES)	MBC
CCCCCCCCC[C@@H](O)[C@H](CO)n1cc(-c2cccc(O)c2)nn1	7.8 µg/mL (≈ 21.6 µM)

Each compound was assayed on Pichia sporocuriosa (assay: Antifungal activity against Issatchenkia hanoiensis MTCC 4755 incubated for 24 hrs at 30 degC by well diffusion method). Details: MTCC 4755, 24 h.
Format: functional

MIC	Structure (SMILES)
7.8 µg/mL (≈ 21.6 µM)	CCCCCCCCC[C@@H](O)[C@H](CO)n1cc(-c2cccc(O)c2)nn1

Each compound was assayed on Pseudomonas aeruginosa (assay: Antibacterial activity against Pseudomonas aeruginosa MTCC 2453 incubated for 24 hrs at 37 degC by well diffusion method). Details: MTCC 2453, 24 h.
Format: functional

MIC	Structure (SMILES)
> 250 µg/mL	CCCCCCCCC[C@@H](O)[C@H](CO)n1cc(-c2cccc(O)c2)nn1

What follows are compounds tested on Candida albicans (assay: Antifungal activity against Candida albicans MTCC 3958 incubated for 24 hrs at 30 degC by well diffusion method). Details: MTCC 3958, 24 h.
Format: functional

MIC	Structure (SMILES)
15.6 µg/mL (≈ 43.2 µM)	CCCCCCCCC[C@@H](O)[C@H](CO)n1cc(-c2cccc(O)c2)nn1
